# Values quoted from earlier work in article PMC10288581 (Frontiers in Pharmacology, 2023).
# What was measured:
# [1] = ref Langtry and Brogden, 1997; cited from earlier work
# CYP3A4 [2] = system: CYP3A4; design: method as in Obach et al., 2006; Galetin et al., 2007; conditions: ref Obach et al., 2006; Galetin et al., 2007; cited from earlier work
# [3] = ref Kristin et al., 2017; cited from earlier work
# P-glycoprotein = system: P-glycoprotein; design: method as in Vermeer et al., 2016; conditions: in-vitro data; ref Vermeer et al., 2016; cited from earlier work
# 2C9 = system: 2C9; design: method as in Obach et al., 2006; conditions: in-vitro data; ref Obach et al., 2006; cited from earlier work
# MRP2 = system: MRP2; design: method as in Vermeer et al., 2016; conditions: in-vitro data; ref Vermeer et al., 2016; cited from earlier work
# CYP2C19 = system: CYP2C19; design: method as in Obach et al., 2006; conditions: in-vitro data; ref Obach et al., 2006; cited from earlier work
# CYP3A4 [4] = system: CYP3A4; design: method as in Elsby et al., 2019; conditions: ref Elsby et al., 2019; read-out: inhibition constant Ki; cited from earlier work
# OATP 1B3 = system: OATP 1B3; design: method as in Müller and Fromm, 2011; Vermeer et al., 2016; conditions: ref Müller and Fromm, 2011; Vermeer et al., 2016; cited from earlier work
# OATP1B1 = system: OATP1B1; design: method as in Müller and Fromm, 2011; Vermeer et al., 2016; conditions: ref Müller and Fromm, 2011; Vermeer et al., 2016; cited from earlier work
smiles,measurement,setting,value
"CC[C@H]1OC(=O)[C@H](C)[C@@H](O[C@H]2C[C@@](C)(OC)[C@@H](O)[C@H](C)O2)[C@H](C)[C@@H](O[C@@H]2O[C@H](C)C[C@H](N(C)C)[C@H]2O)[C@](C)(OC)C[C@@H](C)C(=O)[C@H](C)[C@@H](O)[C@]1(C)O [clarithromycin, 6-O-Methylerthromycin]",protein binding,[1],42%–72
same,potential to inhibit the CYP3A4 at the intestinal level,CYP3A4 [2],60%–70
same,BCS class,[3],class-II
same,IC50,P-glycoprotein,8.9 ± 0.5 µM
same,inhibitory concentration of 2C9,2C9,4%
same,IC50,MRP2,> 50 µM
same,inhibitory concentration of CYP2C19,CYP2C19,11%
same,IC50,OATP 1B3,14 ± 2 µM
same,IC50,OATP1B1,5.3 ± 1.3 µM
